According to PubChem BioAssay AID270 (DTP/NCI, 2004):
Values joined by “and” are separate entries in the source; they are usually repeats but may differ in a detail not shown here. Equal entries are not always repeated. Results filed as inconclusive are left out.

Tested on: BDF1 mice, s.c. Lewis lung carcinoma, T/C %
Assay: NCI In Vivo Anticancer Drug Screen. Data for tumor model Lewis Lung Carcinoma (subcutaneous) in B6D2F1 (BDF1) mice
Summary of the method: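 Tumor-bearing mice were treated with test compound, and either survival or tumor size was recorded. Values are the treated-group measurement divided by that of the vehicle-treated control group.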

[1] = endpoint: median survival time, dose: 0.1 mg/kg/injection, schedule: Q01DX009 (ip), vehicle: saline, higher = longer survival
[2] = endpoint: median survival time, dose: 0.2 mg/kg/injection, schedule: Q01DX009 (ip), vehicle: saline, higher = longer survival
[3] = endpoint: mean tumor weight, dose: 25.0 mg/kg/injection, schedule: Q01DX011 (ip), vehicle: saline, higher = larger tumour
[4] = endpoint: mean tumor weight, dose: 50.0 mg/kg/injection, schedule: Q01DX011 (ip), vehicle: saline, higher = larger tumour
[5] = endpoint: mean tumor weight, dose: 100.0 mg/kg/injection, schedule: Q01DX011 (ip), vehicle: saline, higher = larger tumour
[6] = endpoint: mean tumor weight, dose: 200.0 mg/kg/injection, schedule: Q01DX011 (ip), vehicle: saline, higher = larger tumour

O=NN(CCCl)C(=O)N[C@H]1CCCC[C@H]1Cl was tested, and the T/C (endpoint: median survival time, dose: 22.5 mg/kg/injection, schedule: Q01DX001 (ip), vehicle: Klucel (hydroxypropylcellulose) (HPC), higher = longer survival) was 106 % of control, the T/C (endpoint: median survival time, dose: 360.0 mg/kg/injection, schedule: Q01DX001 (ip), vehicle: Klucel (hydroxypropylcellulose) (HPC), higher = longer survival) was 102 % of control and the T/C (endpoint: median tumor weight (est.), dose: 45.0 mg/kg/injection, schedule: Q01DX001 (ip), vehicle: carboxymethylcellulose (CMC), higher = larger tumour) was 89 % of control. For the same compound, the T/C (endpoint: median tumor weight (est.), dose: 90.0 mg/kg/injection, schedule: Q01DX001 (ip), vehicle: carboxymethylcellulose (CMC), higher = larger tumour) was 6 % of control and the T/C (endpoint: median tumor weight (est.), dose: 130.0 mg/kg/injection, schedule: Q01DX001 (ip), vehicle: carboxymethylcellulose (CMC), higher = larger tumour) was 8 % of control.
For C=COCC(C)C (tested in a mixture with another compound), the T/C (endpoint: median survival time, dose: 1.25 mg/kg/injection, schedule: Q01DX009 (ip), vehicle: other, higher = longer survival) was 101 % of control, the T/C (endpoint: median survival time, dose: 2.5 mg/kg/injection, schedule: Q01DX009 (ip), vehicle: other, higher = longer survival) was 110 % of control and the T/C (endpoint: median survival time, dose: 5.0 mg/kg/injection, schedule: Q01DX009 (ip), vehicle: other, higher = longer survival) was 107 % of control.
In the case of CCCN(/C=C/C=C/C=[N+](CCC)CCC)CCC, the T/C (endpoint: median survival time, dose: 0.03 mg/kg/injection, schedule: Q01DX009 (ip), vehicle: saline, higher = longer survival) is reported as 114 % of control, the T/C (endpoint: median survival time, dose: 0.05 mg/kg/injection, schedule: Q01DX009 (ip), vehicle: saline, higher = longer survival) is reported as 100 % of control and the T/C [1] is reported as 115 % of control. For the same compound, the T/C [2] was 108 % of control.
With CC(=O)NCCSC(=O)C(=O)SCCNC(C)=O the T/C [3] was 95 % of control, the T/C [4] was 106 % of control and the T/C [5] was 67 % of control.
In the case of CC(=O)C1=C(O)C2(C)c3c(O)c(C)c(O)c(C(C)=O)c3OC2(Sc2ccccc2)CC1=O (stereo unspecified), the T/C (endpoint: median survival time, dose: 6.25 mg/kg/injection, schedule: Q01DX009 (ip), vehicle: gum acacia, higher = longer survival) is reported as 101 % of control, the T/C (endpoint: median survival time, dose: 25.0 mg/kg/injection, schedule: Q01DX009 (ip), vehicle: gum acacia, higher = longer survival) is reported as 101 % of control and the T/C (endpoint: median survival time, dose: 50.0 mg/kg/injection, schedule: Q01DX009 (ip), vehicle: gum acacia, higher = longer survival) is reported as 97 % of control.
For CCC[C@H]1CCCCN1, the T/C [3] was 88 % of control.
For CN(C)CCCN1c2ccccc2Sc2ccc(C(F)(F)F)cc21, the T/C (endpoint: mean tumor weight, dose: 12.0 mg/kg/injection, schedule: Q01DX011 (ip), vehicle: saline, higher = larger tumour) was 81 % of control and the T/C [3] was 44 % of control.
C=C1C(=O)O[C@@H]2[C@H](O)[C@@H](C)[C@@H]3C=CC(=O)[C@@]3(C)[C@H](OC(=O)C=C(C)C)[C@H]12 was tested, and the T/C (endpoint: median survival time, dose: 0.63 mg/kg/injection, schedule: Q01DX009 (ip), vehicle: saline with Tween-80, higher = longer survival) was 95 % of control, the T/C (endpoint: median survival time, dose: 1.25 mg/kg/injection, schedule: Q01DX009 (ip), vehicle: saline with Tween-80, higher = longer survival) was 92 % of control and the T/C (endpoint: median survival time, dose: 2.5 mg/kg/injection, schedule: Q01DX009 (ip), vehicle: saline with Tween-80, higher = longer survival) was 99 % of control. The T/C (endpoint: median survival time, dose: 5.0 mg/kg/injection, schedule: Q01DX009 (ip), vehicle: saline with Tween-80, higher = longer survival) was 95 % of control, the T/C (endpoint: median survival time, dose: 10.0 mg/kg/injection, schedule: Q01DX009 (ip), vehicle: Klucel (hydroxypropylcellulose) (HPC), higher = longer survival) was 118 % of control and the T/C (endpoint: median survival time, dose: 10.0 mg/kg/injection, schedule: Q01DX009 (ip), vehicle: saline with Tween-80, higher = longer survival) was 92 % of control.
With O=NN(CCCl)C(=O)NC1CS(=O)(=O)CS(=O)(=O)C1 the T/C (endpoint: median survival time, dose: 5.3 mg/kg/injection, schedule: Q04DX004 (ip), vehicle: saline with Tween-80, higher = longer survival) was 82 % of control, the T/C (endpoint: median survival time, dose: 8.0 mg/kg/injection, schedule: Q04DX004 (ip), vehicle: saline with Tween-80, higher = longer survival) was 151 % of control and the T/C (endpoint: median survival time, dose: 12.0 mg/kg/injection, schedule: Q04DX004 (ip), vehicle: saline with Tween-80, higher = longer survival) was 99 % of control. The T/C (endpoint: median survival time, dose: 18.0 mg/kg/injection, schedule: Q04DX004 (ip), vehicle: saline with Tween-80, higher = longer survival) was 118 % of control.
With O=[N+]([O-])c1ccc([I+]c2ccccc2)cc1 the T/C (endpoint: median survival time, dose: 12.5 mg/kg/injection, schedule: Q01DX009 (ip), vehicle: Klucel (hydroxypropylcellulose) (HPC), higher = longer survival) was 91 % of control and the T/C (endpoint: median survival time, dose: 25.0 mg/kg/injection, schedule: Q01DX009 (ip), vehicle: Klucel (hydroxypropylcellulose) (HPC), higher = longer survival) was 95 % of control.
In the case of N=C(N)N, the T/C [5] is reported as 114 % of control and the T/C [6] is reported as 89 % of control.
In the case of COC1OC(CNC(=O)N(C)N=O)C(O)C(O)C1O (stereo unspecified), the T/C (endpoint: median survival time, dose: 50.0 mg/kg/injection, schedule: Q01DX009 (ip), vehicle: saline, higher = longer survival) is reported as 102 % of control, the T/C (endpoint: median survival time, dose: 100.0 mg/kg/injection, schedule: Q01DX009 (ip), vehicle: saline, higher = longer survival) is reported as 112 % of control and the T/C (endpoint: median survival time, dose: 200.0 mg/kg/injection, schedule: Q01DX009 (ip), vehicle: saline, higher = longer survival) is reported as 97 % of control.
For CC[C@H]1CN2CCc3cc(OC)c(OC)cc3[C@@H]2C[C@@H]1C[C@H]1NCCc2cc(OC)c(OC)cc21, the T/C (endpoint: mean tumor weight, dose: 1.5 mg/kg/injection, schedule: Q01DX011 (ip), vehicle: saline, higher = larger tumour) was 86 % of control.
Cc1ccnc(NS(=O)(=O)c2ccc(N=Nc3nc4[nH]c(N)nc(=S)c4[nH]3)cc2)n1 was tested, and the T/C (endpoint: median survival time, dose: 0.19 mg/kg/injection, schedule: Q01DX009 (ip), vehicle: Klucel (hydroxypropylcellulose) (HPC), higher = longer survival) was 106 % of control, the T/C (endpoint: median survival time, dose: 0.39 mg/kg/injection, schedule: Q01DX009 (ip), vehicle: Klucel (hydroxypropylcellulose) (HPC), higher = longer survival) was 94 % of control and the T/C (endpoint: median survival time, dose: 0.78 mg/kg/injection, schedule: Q01DX009 (ip), vehicle: Klucel (hydroxypropylcellulose) (HPC), higher = longer survival) was 97 % of control. For the same compound, the T/C (endpoint: median survival time, dose: 1.56 mg/kg/injection, schedule: Q01DX009 (ip), vehicle: Klucel (hydroxypropylcellulose) (HPC), higher = longer survival) was 87 % of control and 103 % of control.
With C/C(=N\N=C(/C)c1ccc(-c2ccccc2)cc1)c1ccc(-c2ccccc2)cc1 the T/C [3] was 84 % of control, the T/C [4] was 85 % of control and the T/C [5] was 76 % of control. The T/C [6] was 46 % of control.
With CNC1=C(N2CC2)C(=O)C(NC)=C(N2CC2)C1=O the T/C (endpoint: median survival time, dose: 0.02 mg/kg/injection, schedule: Q01DX009 (ip), vehicle: saline, higher = longer survival) was 120 % of control, the T/C [1] was 113 % of control and the T/C [2] was 105 % of control. For the same compound, the T/C (endpoint: median survival time, dose: 0.4 mg/kg/injection, schedule: Q01DX009 (ip), vehicle: saline, higher = longer survival) was 124 % of control.
With CC1=C2C(=CC(C)(C)[C@@H]2O)C(=O)[C@](C)(O)C12CC2 the T/C (endpoint: mean tumor weight, dose: 0.12 mg/kg/injection, schedule: Q01DX011 (ip), vehicle: saline, higher = larger tumour) was 61 % of control, the T/C (endpoint: mean tumor weight, dose: 0.18 mg/kg/injection, schedule: Q01DX011 (ip), vehicle: saline, higher = larger tumour) was 92 % of control and the T/C (endpoint: mean tumor weight, dose: 0.26 mg/kg/injection, schedule: Q01DX011 (ip), vehicle: saline, higher = larger tumour) was 73 % of control. The T/C (endpoint: mean tumor weight, dose: 0.4 mg/kg/injection, schedule: Q01DX011 (ip), vehicle: saline, higher = larger tumour) was 76 % of control and the T/C (endpoint: mean tumor weight, dose: 0.6 mg/kg/injection, schedule: Q01DX011 (ip), vehicle: saline, higher = larger tumour) was 19 % of control.
For CC1C/C=C2\CSC(NC(=O)/C3=C\N(C/C=C/C=C/C(O)CC(O)CC(=O)N3)C2=O)C(=O)O1 (stereo unspecified), the T/C (endpoint: mean tumor weight, dose: 10.6 mg/kg/injection, schedule: Q01DX011 (ip), vehicle: carboxymethylcellulose (CMC), higher = larger tumour) was 88 % of control, the T/C (endpoint: mean tumor weight, dose: 16.0 mg/kg/injection, schedule: Q01DX011 (ip), vehicle: carboxymethylcellulose (CMC), higher = larger tumour) was 169 % of control and the T/C (endpoint: mean tumor weight, dose: 24.0 mg/kg/injection, schedule: Q01DX011 (ip), vehicle: carboxymethylcellulose (CMC), higher = larger tumour) was 68 % of control. For the same compound, the T/C (endpoint: mean tumor weight, dose: 36.0 mg/kg/injection, schedule: Q01DX011 (ip), vehicle: carboxymethylcellulose (CMC), higher = larger tumour) was 114 % of control.
In the case of CCCCCC/C=C/[N+]([O-])=NC(COC)C(C)O (stereo unspecified), the T/C (endpoint: mean tumor weight, dose: 5.0 mg/kg/injection, schedule: Q01DX011 (ip), vehicle: carboxymethylcellulose (CMC), higher = larger tumour) is reported as 84 % of control and the T/C (endpoint: mean tumor weight, dose: 10.0 mg/kg/injection, schedule: Q01DX011 (ip), vehicle: carboxymethylcellulose (CMC), higher = larger tumour) is reported as 96 % of control.
In the case of COC1C(O)CC(OC2CC(Oc3cc4cc5c(c(O)c4c(O)c3C)C(=O)[C@@H](OC3CC(OC4CC(OC6CC(C)(O)C(OC(C)=O)C(C)O6)C(O)C(C)O4)C(O)C(C)O3)[C@H]([C@H](OC)C(=O)[C@@H](O)[C@@H](C)O)C5)OC(C)C2OC(C)=O)OC1C (stereo partly specified), the T/C (endpoint: mean tumor weight, dose: 33.0 micrograms/kg/injection, schedule: Q01DX011 (ip), vehicle: saline with Tween-80, higher = larger tumour) is reported as 93 % of control, the T/C (endpoint: mean tumor weight, dose: 65.0 micrograms/kg/injection, schedule: Q01DX011 (ip), vehicle: saline with Tween-80, higher = larger tumour) is reported as 82 % of control and the T/C (endpoint: mean tumor weight, dose: 130.0 micrograms/kg/injection, schedule: Q01DX011 (ip), vehicle: saline with Tween-80, higher = larger tumour) is reported as 66 % of control. For the same compound, the T/C (endpoint: median survival time, dose: 0.02 mg/kg/injection, schedule: Q01DX011 (ip), vehicle: other, higher = longer survival) was 107 % of control.
